These are literature values, as cited in patent US10993934B2, “Topical compositions of dutasteride” (SHILPA MEDICARE LIMITED, priority 2017, dated 2021).

For data set [1] the following is noted: orally administered.

With `C[C@]12C=CC(=O)N[C@@H]1CC[C@@H]1[C@@H]2CC[C@]2(C)[C@@H](C(=O)Nc3cc(C(F)(F)F)ccc3C(F)(F)F)CC[C@@H]12` [Dutasteride, (5α,17β)-N-{2,5-bis(trifluoromethyl)phenyl}-3-oxo-4-azaandrost-1-ene-17-carboxamide], the Absolute bioavailability result in data set [1] is “about 60%”. Moreover, the “Absolute bioavailability (range)” value in data set [1] (range in brackets) is recorded as 40%-94%. In addition, the Solubility in ethanol entry (ethanol) is “soluble”. The Solubility in methanol result (methanol) is listed as “soluble”. Also, under “polyethylene glycol 400”, the “Solubility in polyethylene glycol 400” value is reported as “soluble”. Further, the Solubility in water entry (water) was “insoluble”.
